Laboratory results: US20240400621A1, “PEPTIDES FOR METABOLIC SYNDROME” (ALPARIS, S.A. de C.V., priority 2021, published 2024)
Like-named read-outs stand apart in the source and are kept apart here. Where no end group is shown, it is not given here.

Tests used:
hTLR2 = target: T1, hTLR2 (Homo sapiens, UniProt O60603); assay: hTLR2 stimulation in HEK-Blue hTLR2 cells (NF-κβ/SEAP reporter, QUANTI-Blue); assay type: cell-based
T1 construct: expressed in transfected cells; host or cells: HEK-Blue hTLR2 cells
Description: The analysis of the biological activity of the protein of SEQ ID NO. 1 was performed via an in vitro Toll-like receptors (TLRs) recognition assay. The HEK-Blue hTLR2 cell line expressing the hTLR2 receptor was used, whose stimulation activates the NF-Kβ factor, which in turn induces the production of the reporter protein, secreted embryonic alkaline phosphatase (SEAP). The SEAP levels are quantified by a colorimetric method with the reagent QUANTI-Blue and correspond to hTLR2 stimulation levels. The HEK-Blue hTLR2 cell line was thawed and propagated to make a master cell bank. From this bank, a vial was thawed to check the correct growth of the cell line and the absence of mycoplasma contamination. The cells of the thawed vial were propagated to make a working cell bank and continue the subcultures to mount the activity assay of SEQ ID NO. 1. This consisted of a series of tests in which the cellular response was evaluated with different molecules to determine the most suitable conditions for the assay.
The determined EC50 for SEQ ID NO. 1 was 1147±211 ng/ml (35.1±6.4 nM).
The in vitro biological activity of SEQ ID NO:2, SEQ ID NO:3, SEQ ID NO:4, SEQ ID NO: 8, SEQ ID NO:9, SEQ ID NO: 10, SEQ ID NO:11, SEQ ID NO: 12, SEQ ID NO: 13, SEQ ID NO: 14, SEQ ID NO: 15, and SEQ ID NO:16 was tested via the stimulation of hTLR2 in the cultures of HEK-Blue hTLR2 cells in 96-well plates for 24 h. After collecting the supernatant, the plate was incubated with QUANTI-Blue at 37° C. for 1 h, and absorbance was measured at 620 nm.
To determine the EC50, the absorbance was plotted against the logarithm of protein concentration, and the data was adjusted to a dose-response sigmoidal ligand binding model with 4 parameters. The cell culture medium was used as a negative control, and PAM (synthetic triacylated lipopeptide (Pam3CSK4)) was used as a positive control.

[1] = Body weight of mice on high-fat diet (DAG) with intragastric peptide for 12 weeks; assay type: in vivo, mice (C57BL/6JN)
Description: (§1) For all the in vivo testing, male mice of the C57BL/6JN strain between 8 to 10 weeks of age were used, housed in groups of 3 to 5 mice per cage with food and water ad libitum in ventilated racks, and whose microbiota were unified for 4 weeks.
(§2) The mice received either 200 μL of a phosphate buffer solution (PBS) at pH 7.5 (as a vehicle), or 200 μL of the PBS solution, with each of the intragastric treatments daily for 12 weeks. They were fed either a Normal Diet (DN, Harlan, Teklad 2018SX) with 18% of the calories coming from fat, or a High-Fat Diet (DAG, Research Diets, D12491), with 60% of the calories coming from fat.
(§3) All the mice were randomly divided into five experimental groups in order to study the effect of SEQ ID NO: 3 and SEQ ID NO: 2 correctly: • Group 1—Mice with DN that received 200 μl of PBS intragastrically. • Group 2—Mice with DAG that received 200 μl of PBS intragastrically. • Group 3—Mice with DAG that received 200 μl of PBS with SEQ ID NO: 3 intragastrically at a dose of: 2.5 μg/mouse. • Group 4—Mice with DAG that received 200 μl of PBS with SEQ ID NO: 2 intragastrically at a dose of 0.6 μg/mouse (high dose). • Group 5—Mice with DAG that received 200 μl of PBS with SEQ ID NO: 2 intragastrically at a dose of 0.2 μg/mouse (low dose).
The animal weights and feed intakes were recorded weekly.
To determine the metabolic status of the animals before starting the experiment, weight, basal glucose levels, glucose tolerance, and insulin resistance were recorded.

mice fed a high-fat diet [2] = assay: Glucose tolerance test (GTT) in mice fed a high-fat diet; assay type: in vivo, mice (C57BL/6JN); conditions: 12 weeks; intragastric daily; SEQ ID NO: 3 2.5 μg/mouse, SEQ ID NO: 2 0.6 or 0.2 μg/mouse
Description: as §1
as §2, with “fat. […]” for “fat.”
The mice were subjected to fasting for 6 hours, and the baseline glucose values in the blood were determined using glucose test strips and a glucometer (Roche's ACCU-CHECK ACTIVE).
Next, the mice received an intraperitoneal injection of 1.8 mg of glucose per gram of body weight, and the blood glucose values were recorded at 15, 30, 60, and 120 minutes after administration.
FIGS. 19A and 19B show the area under the curve (AUC) of the glucose tolerance test of the mice, measured at week 0 and 12.

mice fed a high-fat diet [3] = assay: Insulin resistance test (PRI) in mice fed a high-fat diet; assay type: in vivo, mice (C57BL/6JN); conditions: 12 weeks; intragastric daily; SEQ ID NO: 3 2.5 μg/mouse, SEQ ID NO: 2 0.6 or 0.2 μg/mouse
Description: as §1
as §2, with “fat. […]” for “fat.”
The mice were subjected to fasting for 6 hours and the baseline glucose values were determined, as described above. Subsequently, the mice received an intraperitoneal injection of 1 mU of insulin per gram of body weight, and blood glucose values were recorded at 15, 30, 60, and 120 minutes after administration. The area under the curve (AUC) of the insulin resistance test was calculated considering the glucose decrease between time T0 and T15 using the absolute glucose values, as shown in FIGS. 20A and 20B.

insulin = assay: Insulin levels (secretion in response to glucose) in mice fed a high-fat diet; assay type: in vivo, mice (C57BL/6JN); conditions: 12 weeks; versus DAG group
Description: as §1, §2, §3
This means that the peptide SEQ ID NO: 3 improves insulin sensitivity, preventing insulin resistance from developing.

adipose tissue = assay: Cellular infiltrate / inflammatory process in adipose tissue of mice fed a high-fat diet; assay type: in vivo, mice (C57BL/6JN)
Description: as §1, §2, §3
(§4) To determine the effect of the peptides SEQ ID NO: 2 and SEQ ID NO: 3 in attenuating the inflammatory process in adipose tissue, the cellular infiltrate of the adipose tissue of the mice was quantified after they had been fed DAG.

IL-1B = assay: Circulating IL-1B levels in mice fed a high-fat diet; assay type: in vivo, mice (C57BL/6JN); conditions: 12 weeks; versus DAG; including SEQ ID NO: 2 at low doses
Description: as §1
as §2, with “fat. […]” for “fat.”
as §4

TNFα = assay: Circulating TNFα levels in mice fed a high-fat diet; assay type: in vivo, mice (C57BL/6JN); conditions: 12 weeks; versus DAG; including SEQ ID NO: 2 at low doses
Description: as §1
as §2, with “fat. […]” for “fat.”
as §4

IL-6 = IL-6 levels in mice fed a high-fat diet; assay type: in vivo, mice (C57BL/6JN); conditions: 12 weeks; animals fed DAG
Description: as §1, §2, §3

leptin = assay: Leptin levels in mice fed a high-fat diet; assay type: in vivo, mice (C57BL/6JN); conditions: 12 weeks; compared to mice fed only DAG
Description: as §1, §2
as §3, with “(low dose). […]” for “(low dose).”

adiponectin = assay: Adiponectin levels in mice fed a high-fat diet; assay type: in vivo, mice (C57BL/6JN); conditions: 12 weeks; fall induced by DAG
Description: as §1, §2
as §3, with “(low dose). […]” for “(low dose).”

[4] = target: T2, human Toll-like receptor 2 (hTLR2) on HEK-Blue hTLR2 cells (human (printed as hTLR2), UniProt O60603 21-784); assay: cell-based or functional assay
[5] = target: T2, human Toll-like receptor 2 (hTLR2) on …; assay: cell-based or functional assay; remark: listed apart in the source
[6] = Aggregation during ultrafiltration / buffer change; assay type: physicochemical
Description: The protein of SEQ ID NO. 1, expressed in recombinant form in this invention, contains a tag of six residues of histidine at the carboxyl terminal end, allowing it to be purified by immobilized metal cation affinity chromatography (IMAC). Purification was initially evaluated with the soluble fractions of the two strains that were used for recombinant production, obtained by enzymatic lysis and sonication. The first approach with the Ni-NTA Agarose resin allowed for the recovery of 6% of the SEQ ID NO. 1 with a purity of 50-80%. An FPLC Ákta Prime chromatographic system and an XK16/20 column packed with 13 mL of Chelating Sepharose Fast Flow-Ni^+2 resin were used for purification. A minimum imidazole concentration of 30 mM was defined in both the sample to be injected and the equilibrium buffer. Elution was performed with 500 mM imidazole at 6.5 mL/min, resulting in a minimum recovery of 80% of SEQ ID No. 1 with 82% purity. The ultrafiltration of the tangential flow of SEQ ID NO. 1 during the chromatography stage, in order to concentrate and change the buffer, negatively impacted protein quality. However, the dialysis of EQ ID NO.
However, the aggregation of SEQ ID NO. […] This was corroborated by the SDSPAGE analysis, in which the remaining protein in the soluble fraction presented fragments of lower molecular weight than that of SEQ ID NO. 1, but greater than 25 kDa. On the other hand, the precipitate turned out to be denatured SEQ ID NO. 1, but not degraded.
Finally, SEQ ID NO. 4 and SEQ ID NO.

T1 sequence (O60603 21-784): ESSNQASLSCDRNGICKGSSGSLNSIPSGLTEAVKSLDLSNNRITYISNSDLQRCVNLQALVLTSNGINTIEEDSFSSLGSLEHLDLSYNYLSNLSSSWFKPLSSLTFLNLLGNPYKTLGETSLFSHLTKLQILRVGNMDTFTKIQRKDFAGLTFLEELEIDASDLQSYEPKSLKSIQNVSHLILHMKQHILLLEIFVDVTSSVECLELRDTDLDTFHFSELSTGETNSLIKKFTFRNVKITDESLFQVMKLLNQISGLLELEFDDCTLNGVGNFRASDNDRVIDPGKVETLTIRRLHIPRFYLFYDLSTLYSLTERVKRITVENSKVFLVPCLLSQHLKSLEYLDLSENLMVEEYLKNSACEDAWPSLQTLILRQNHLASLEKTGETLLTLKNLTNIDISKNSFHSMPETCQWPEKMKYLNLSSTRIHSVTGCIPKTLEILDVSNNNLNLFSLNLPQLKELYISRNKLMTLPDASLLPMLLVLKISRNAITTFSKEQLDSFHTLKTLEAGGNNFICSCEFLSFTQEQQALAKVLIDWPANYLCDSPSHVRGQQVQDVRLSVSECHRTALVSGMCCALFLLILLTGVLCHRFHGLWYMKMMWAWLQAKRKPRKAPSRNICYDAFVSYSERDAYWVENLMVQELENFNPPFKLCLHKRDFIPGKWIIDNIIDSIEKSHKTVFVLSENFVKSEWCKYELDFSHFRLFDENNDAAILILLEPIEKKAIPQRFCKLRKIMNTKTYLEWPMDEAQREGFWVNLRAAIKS
T2 sequence (O60603 21-784): as above

With “AMNAITGMQDYLFTVNSIRIRNERMMPPPIANPAAAK [SEQ ID NO: 2]” the “concentration from which hTLR2 is (significantly) stimulated” value (hTLR2; HEK-Blue hTLR2 cells, 24 h) was 3.05 nM, the “concentration giving the best hTLR2 stimulation” value (hTLR2; HEK-Blue hTLR2 cells, 24 h) was 305 nM and the Average weight ([1]; 0 weeks (initial state), DAG + SEQ ID NO: 2 High dose group) was 23.9 grams. It also gave an Average weight ([1]; 0 weeks (initial state), DAG + SEQ ID NO: 2 Low dose group) of 23.8 grams, an Average weight ([1]; 12 weeks, DAG + SEQ ID NO: 2 High dose (0.6 μg/mouse) intragastric daily) of 42 grams and an Average weight ([1]; 12 weeks, DAG + SEQ ID NO: 2 Low dose (0.2 μg/mouse) intragastric daily) of 40.2 grams. For the same molecule, the “glucose tolerance (AUC of GTT) versus DAG group” value (mice fed a high-fat diet [2]) was “improved glucose tolerance”, the “insulin sensitivity (AUC of insulin resistance test) versus DAG group” value (mice fed a high-fat diet [3]) was “improve insulin sensitivity” and the “insulin secretion in response to glucose administration” value (insulin) was “tendency to decrease insulin secretion”. For the same molecule, the “cellular infiltrate of adipose tissue” value (adipose tissue; 12 weeks, versus DAG group) was “prevented the increase in cellular infiltrate induced by DAG”, the “inflammatory process in adipose tissue” value (adipose tissue; SEQ ID NO:2 in high or low doses) was “attenuate the inflammatory process in adipose tissue” and the “circulating levels of IL-1B” value (IL-1B) was “prevented the increase in the circulating levels of IL-1B”. The “circulating levels of TNFα” value (TNFα) was “prevented the increase in the circulating levels”, the IL-6 levels (IL-6) was “dramatic decrease in IL-6 levels” and the leptin secretion (leptin) was “decrease in leptin secretion”. For the same molecule, the adiponectin in circulation (adiponectin) was “tendency to prevent a fall of adiponectin”.

In the case of “SEQ ID NO: 12: peptide generated by proteolysis, obtained with both trypsin and Lys-C (MQLPIETPANNPEESDEADQAPWTPMPLEIAFQGDRESVLK)”, the “stimulation of hTLR2” value (hTLR2) is reported as “do not stimulate hTLR2”.

In the case of “SEQ ID NO: 14: peptide of the Lys-C proteolysate, passes the 5 kDa ultrafiltration membrane (PYMGK)”, the “stimulation of hTLR2” value (hTLR2) is reported as “do not stimulate hTLR2”.

In the case of “SEQ ID NO: 16: peptide of the Lys-C proteolysate, retained at the 10 kDa cutoff (EQVFVQVSLNLVHFNQPK)”, the “stimulation of hTLR2” value (hTLR2) is reported as “do not stimulate hTLR2”.

B1: protein of SEQ ID NO: 1 (AMUC_1100 of Akkermansia muciniphila without signal peptide, with Xa factor site and histidine tag) (ligand)
chain: MIVNSKRSELDKKISIAAKEIKSANAAEITPSRSSNEELEKELNRYAKAVGSLETAYKPFLASSALVPTTPTAFQNELKTFRDSLISSCKKKNILITDTSSWLGFQVYSTQAPSVQAASTLGFELKAINSLVNKLAECGLSKFIKVYRPQLPIETPANNPEESDEADQAPWTPMPLEIAFQGDRESVLKAMNAITGMQDYLFTVNSIRIRNERMMPPPIANPAAAKPAAAQPATGAASLTPADEAAAPAAPAIQQVIKPYMGKEQVFVQVSLNLVHFNQPKAQEPSEDIEGRHHHHHHDI
With B1 the EC50 [4] was 1.15 µg/mL, the “EC50” value [5] was 35.1 nM and the “relative activation of NF-κβ” value (hTLR2; 10 μg/mL, 24 h stimulation of hTLR2, 60 min QUANTI-Blue, with respect to the culture medium) was 16.6%±2.7. The “aggregation in ultrafiltration operations” value [6] was “aggregation”.

B2: peptide SEQ ID NO: 2 (peptide)
peptide: AMNAITGMQDYLFTVNSIRIRNERMMPPPIANPAAAK
With B2 the “EC50” value [5] was 24.9 nM.

B3: peptide SEQ ID NO: 4 (amino terminal domain of SEQ ID NO: 1) (peptide)
chain: IVNSKRSELDKKISIAAKEIKSANAAEITPSRSSNEELEKELNRYAKAVGSLETAYKPFLASSALVPTTPTAFQNELKTFRDSLISSCKKKNILITDTSSWLGFQVYSTQAPSVQAASTLGFELKAINSLVNKLAECGLSKFIKVYRPQ
With B3 the “EC50” value [5] was 65.9 nM, the “concentration from which hTLR2 is (significantly) stimulated” value (hTLR2; HEK-Blue hTLR2 cells, 24 h) was 38 nM and the “relative response compared to PAM” value (hTLR2; maximum concentration tested (305 nM)) was 101%. For the same molecule, the “aggregation in ultrafiltration operations” value [6] was “no visible aggregation”.
